In publication PMC6203605 (Journal of biological inorganic chemistry : JBIC : a …, 2018) one finds Kd data, which are given here for one compound.

In assay [1] the target is HemO (Pseudomonas aeruginosa, UniProt G3XCZ8, D99A). The experiment in a line: biochemical.
The target of assay [2] is HemO (Pseudomonas aeruginosa, UniProt G3XCZ8, D99A/R188A). The experiment in a line: biochemical.
Assay [3] has as its target HemO (Pseudomonas aeruginosa, UniProt G3XCZ8, R188A). The experiment in a line: biochemical.
The target in assay [4] is HemO (Pseudomonas aeruginosa, UniProt G3XCZ8). The experiment in a line: intrinsic fluorescence quenching. In kind it is binding.

For `C=CC1=C(C)C2=Cc3c(C=C)c(C)c4[n]3[Fe]([Cl])[n]3c(c(C)c(CCC(=O)O)c3=CC3=NC(=C4)C(C)=C3CCC(=O)O)=CC1=N2` [heme], the Kd in assay [1] was determined as 830 ± 210 nM; in assay [2], 990 ± 210 nM; in assay [3], 790 ± 220 nM; in assay [4], 870 ± 170 nM.
